Measured values as given in patent US11707442B2, “Antibacterial and antifungal compounds” (The General Hospital Corporation, priority 2015, dated 2023).
≈ marks a conversion by molar mass, not a printed value. Where two headings read alike, the source gives them in different places.

Columns and labels:
[1] = tested on: S. aureus persister cells (stationary phase); assay: Persister killing assay; format: cell-based, Staphylococcus aureus; details: 4 μg/ml CD437 or CD1530 or 10 μg/ml gentamicin alone
Experimental: Persister killing assay. […] Persister cells of these 13 S. aureus strains were developed by growing cultures overnight to stationary phase at 37° C. at 225 rpm. The overnight cultures were washed three times with PBS and diluted to ˜10^7 CFU/ml with the same buffer, which is the same concentration as used in the killing kinetics assay described herein. 1 ml of the persister suspension containing appropriate concentrations of antibiotics was added to the wells of a 2 ml deep well assay block (Corning Costar 3960) and incubated at 37° C., with shaking at 225 rpm. At specific times, 50 μl samples were removed, serially diluted and spot-plated on TSA plates to enumerate the number of live cells. These experiments were conducted in triplicate.

S. aureus = assay: Minimal inhibitory concentration (MIC), broth microdilution; format: cell-based, Staphylococcus aureus
Description: (§1) Bacterial strains and growth conditions and persister isolation: methicillin-resistant S. aureus (MRSA) strain MW2 BAA-1707, vancomycin-resistant S. aureus strain VRS 1, 11 clinical S. aureus isolates, 8 clinical Enterococcus faecium isolates, Klebsiella pneumoniae WGLW2 (BEI Resources, Manassas, Va., USA), Acinetobacter baumannii ATCC 17978, Pseudomonas aeruginosa PA14, and Enterobacter aerogenes ATCC 13048 were used to test antimicrobial activity (See Table 1a). S. aureus and E. faecium strains were grown in tryptic soy broth (TSB) (BD, Franklin Lakes, N.J., USA) or brain-heart infusion (BHI) broth (BD, Franklin Lakes, N.J., USA), respectively at 37° C. at 225 rpm. K. pneumoniae, A. baumannii, P. aeruginosa, and E. aerogenes were grown in Luria Bertani (LB) broth (BD, Franklin Lakes, N.J., USA).
(§2) To test the bacterial MICs for compounds described herein, the total volume in each well was 100 μl of test compounds and bacterial cells in MH broth. […] The bacterial concentration was adjusted to an initial OD600 of 0.03. After incubation at 35° C. for 18 hrs, the absorbance was measured at 595 nm in accordance with CLSI document M07-A8. The MICs of antibiotics were determined by the standard microdilution method recommended by the Clinical and Laboratory Standards Institute.

A. baumannii = assay: MIC, broth microdilution; format: cell-based, Acinetobacter baumannii
Description: as §1, §2

P. aeruginosa = assay: MIC, broth microdilution; format: cell-based, Pseudomonas aeruginosa
Description: as §1, §2

E. aerogenes ATCC 13048 = assay: MIC, broth microdilution; format: cell-based, Enterobacter aerogenes
Description: as §1, §2

[2] = tested on: S. aureus MW2 (MRSA) in neutropenic mouse thigh; details: previous study (Conlon 2013); cited from earlier work
K. pneumonia WGLW2 = assay: MIC, broth microdilution; format: cell-based, Klebsiella pneumoniae
Description: as §1, §2

E. faecium = assay: MIC, broth microdilution; format: cell-based, Enterococcus faecium; details: for MIC: Enterococcus faecium
Description: as §1, §2

Compound: gentamicin
- viability of MW2 persister cells, single agent [1]: did not significantly affect
- Minimum inhibitory concentration (S. aureus; S. aureus BF1): 1 µg/mL
- Minimum inhibitory concentration (S. aureus; S. aureus BF2): 1 µg/mL
- Minimum inhibitory concentration (S. aureus; S. aureus BF3): 1 µg/mL
- Minimum inhibitory concentration (S. aureus; S. aureus BF4): 1 µg/mL
- Minimum inhibitory concentration (S. aureus; S. aureus BF5): 1 µg/mL
- Minimum inhibitory concentration (S. aureus; S. aureus BF6): 1 µg/mL
- Minimum inhibitory concentration (S. aureus; S. aureus BF7): 1 µg/mL
- Minimum inhibitory concentration (S. aureus; S. aureus BF8): 1 µg/mL
- Minimum inhibitory concentration (S. aureus; S. aureus BF9): 1 µg/mL
- Minimum inhibitory concentration (S. aureus; S. aureus BF10): 1 µg/mL
- Minimum inhibitory concentration (S. aureus; S. aureus BF11): 1 µg/mL
- Minimum inhibitory concentration (S. aureus; S. aureus MW2): 1 µg/mL
- MIC (S. aureus; S. aureus MW2 mutant SP1-8 (graS)): 0.25 µg/mL
- MIC (S. aureus; S. aureus MW2 mutant SP1-48 (graS, manA)): 0.25 µg/mL
- MIC (S. aureus; S. aureus MW2 mutant SP1-74 (graS, manA, MW2474)): 0.25 µg/mL
- MIC (S. aureus; S. aureus MW2 mutant SP1-100 (graS, manA, MW2474)): 0.25 µg/mL
- MIC (S. aureus; S. aureus MW2 mutant SP2-13 (yjbH)): 1 µg/mL
- MIC (S. aureus; S. aureus MW2 mutant SP2-52 (yjbH, dltB)): 0.25 µg/mL
- MIC (S. aureus; S. aureus MW2 mutant SP2-59 (yjbH, dltB, manA)): 0.25 µg/mL
- MIC (S. aureus; S. aureus MW2 mutant SP2-65 (yjbH, dltB, manA, MW1685)): 0.25 µg/mL
- MIC (S. aureus; S. aureus MW2 mutant SP2-100 (yjbH dltB, manA, MW1685)): 0.25 µg/mL
- MIC (S. aureus; S. aureus MW2 serial passage culture SP1-1 (no mutated gene)): 1 µg/mL
- MIC (S. aureus; S. aureus MW2 serial passage culture SP2-1 (no mutated gene)): 1 µg/mL
- Minimum inhibitory concentration (S. aureus; S. aureus VRS1): >64 µg/mL
- Minimum inhibitory concentration (A. baumannii; A. baumannii ATCC 17978): 1 µg/mL
- Minimum inhibitory concentration (P. aeruginosa; P. aeruginosa PA14): 2 µg/mL
- Minimum inhibitory concentration (E. aerogenes ATCC 13048; E. aerogenes ATCC 13048): 2 µg/mL
- reduction of MRSA CFUs in the deep-seated mouse thigh infection model [2]: unable to significantly reduce
- Minimum inhibitory concentration (K. pneumonia WGLW2; K. pneumonia WGLW2): 1 µg/mL
- Minimum inhibitory concentration (E. faecium; E. faecium C68): >64 µg/mL
- Minimum inhibitory concentration (E. faecium; E. faecium D14): 32 µg/mL
- Minimum inhibitory concentration (E. faecium; E. faecium D24): >64 µg/mL
- Minimum inhibitory concentration (E. faecium; E. faecium D25): 32 µg/mL
- Minimum inhibitory concentration (E. faecium; E. faecium D29): 64 µg/mL
- Minimum inhibitory concentration (E. faecium; E. faecium E007): >64 µg/mL
- Minimum inhibitory concentration (E. faecium; E. faecium WB213): 32 µg/mL
- Minimum inhibitory concentration (E. faecium; E. faecium WC176): 64 µg/mL

Compound: CN[C@H](CC(C)C)C(=O)N[C@H]1C(=O)N[C@@H](CC(N)=O)C(=O)N[C@H]2C(=O)N[C@H]3C(=O)N[C@H](C(=O)N[C@H](C(=O)O)c4cc(O)cc(O)c4-c4cc3ccc4O)[C@H](O)c3ccc(c(Cl)c3)Oc3cc2cc(c3O[C@@H]2O[C@H](CO)[C@@H](O)[C@H](O)[C@H]2O[C@H]2C[C@](C)(N)[C@H](O)[C@H](C)O2)Oc2ccc(cc2Cl)[C@H]1O [Vancomycin, vancomycin]
- MIC (S. aureus; Staphylococcus aureus, S. aureus MW2 mutant SP1-8 (graS)): 0.5 µg/mL (≈ 0.345 µM)
- MIC (S. aureus; Staphylococcus aureus, S. aureus MW2 mutant SP1-48 (graS, manA)): 0.5 µg/mL (≈ 0.345 µM)
- MIC (S. aureus; Staphylococcus aureus, S. aureus MW2 mutant SP1-74 (graS, manA, MW2474)): 0.5 µg/mL (≈ 0.345 µM)
- MIC (S. aureus; Staphylococcus aureus, S. aureus MW2 mutant SP1-100 (graS, manA, MW2474)): 0.5 µg/mL (≈ 0.345 µM)
- MIC (S. aureus; Staphylococcus aureus, S. aureus MW2 mutant SP2-13 (yjbH)): 1 µg/mL (≈ 0.69 µM)
- MIC (S. aureus; Staphylococcus aureus, S. aureus MW2 mutant SP2-52 (yjbH, dltB)): 0.5 µg/mL (≈ 0.345 µM)
- MIC (S. aureus; Staphylococcus aureus, S. aureus MW2 mutant SP2-59 (yjbH, dltB, manA)): 0.5 µg/mL (≈ 0.345 µM)
- MIC (S. aureus; Staphylococcus aureus, S. aureus MW2 mutant SP2-65 (yjbH, dltB, manA, MW1685)): 0.5 µg/mL (≈ 0.345 µM)
- MIC (S. aureus; Staphylococcus aureus, S. aureus MW2 mutant SP2-100 (yjbH dltB, manA, MW1685)): 0.5 µg/mL (≈ 0.345 µM)
- MIC (S. aureus; Staphylococcus aureus, S. aureus MW2 serial passage culture SP1-1 (no mutated gene)): 1 µg/mL (≈ 0.69 µM)
- MIC (S. aureus; Staphylococcus aureus, S. aureus MW2 serial passage culture SP2-1 (no mutated gene)): 1 µg/mL (≈ 0.69 µM)
- MIC (S. aureus; Staphylococcus aureus, read-out: Drug MIC, Staphylococcus aureus clinical isolate BF1 (Table 5)): 2 µg/mL (≈ 1.38 µM)
- MIC (S. aureus; Staphylococcus aureus, read-out: Drug MIC, Staphylococcus aureus clinical isolate BF2 (Table 5)): 2 µg/mL (≈ 1.38 µM)
- MIC (S. aureus; Staphylococcus aureus, read-out: Drug MIC, Staphylococcus aureus clinical isolate BF3 (Table 5)): 4 µg/mL (≈ 2.76 µM)
- MIC (S. aureus; Staphylococcus aureus, read-out: Drug MIC, Staphylococcus aureus clinical isolate BF4 (Table 5)): 2 µg/mL (≈ 1.38 µM)
- MIC (S. aureus; Staphylococcus aureus, read-out: Drug MIC, Staphylococcus aureus clinical isolate BF5 (Table 5)): 2 µg/mL (≈ 1.38 µM)
- MIC (S. aureus; Staphylococcus aureus, read-out: Drug MIC, Staphylococcus aureus clinical isolate BF6 (Table 5)): 2 µg/mL (≈ 1.38 µM)
- MIC (S. aureus; Staphylococcus aureus, read-out: Drug MIC, Staphylococcus aureus clinical isolate BF7 (Table 5)): 2 µg/mL (≈ 1.38 µM)
- MIC (S. aureus; Staphylococcus aureus, read-out: Drug MIC, Staphylococcus aureus clinical isolate BF8 (Table 5)): 2 µg/mL (≈ 1.38 µM)
- MIC (S. aureus; Staphylococcus aureus, read-out: Drug MIC, Staphylococcus aureus clinical isolate BF9 (Table 5)): 2 µg/mL (≈ 1.38 µM)
- MIC (S. aureus; Staphylococcus aureus, read-out: Drug MIC, Staphylococcus aureus clinical isolate BF10 (Table 5)): 2 µg/mL (≈ 1.38 µM)
- MIC (S. aureus; Staphylococcus aureus, read-out: Drug MIC, Staphylococcus aureus clinical isolate BF11 (Table 5)): 2 µg/mL (≈ 1.38 µM)
- MIC (S. aureus; Staphylococcus aureus, read-out: Minimum inhibitory concentration, S. aureus BF1): 1 µg/mL (≈ 0.69 µM)
- MIC (S. aureus; Staphylococcus aureus, read-out: Minimum inhibitory concentration, S. aureus BF2): 1 µg/mL (≈ 0.69 µM)
- MIC (S. aureus; Staphylococcus aureus, read-out: Minimum inhibitory concentration, S. aureus BF3): 1 µg/mL (≈ 0.69 µM)
- MIC (S. aureus; Staphylococcus aureus, read-out: Minimum inhibitory concentration, S. aureus BF4): 0.5 µg/mL (≈ 0.345 µM)
- MIC (S. aureus; Staphylococcus aureus, read-out: Minimum inhibitory concentration, S. aureus BF5): 0.5 µg/mL (≈ 0.345 µM)
- MIC (S. aureus; Staphylococcus aureus, read-out: Minimum inhibitory concentration, S. aureus BF6): 0.5 µg/mL (≈ 0.345 µM)
- MIC (S. aureus; Staphylococcus aureus, read-out: Minimum inhibitory concentration, S. aureus BF7): 0.5 µg/mL (≈ 0.345 µM)
- MIC (S. aureus; Staphylococcus aureus, read-out: Minimum inhibitory concentration, S. aureus BF8): 0.5 µg/mL (≈ 0.345 µM)
- MIC (S. aureus; Staphylococcus aureus, read-out: Minimum inhibitory concentration, S. aureus BF9): 0.5 µg/mL (≈ 0.345 µM)
- MIC (S. aureus; Staphylococcus aureus, read-out: Minimum inhibitory concentration, S. aureus BF10): 0.5 µg/mL (≈ 0.345 µM)
- MIC (S. aureus; Staphylococcus aureus, read-out: Minimum inhibitory concentration, S. aureus BF11): 1 µg/mL (≈ 0.69 µM)
- MIC (S. aureus; Staphylococcus aureus, read-out: Minimum inhibitory concentration, S. aureus MW2): 1 µg/mL (≈ 0.69 µM)
- MIC (S. aureus; Staphylococcus aureus, read-out: Minimum inhibitory concentration, S. aureus VRS1): > 64 µg/mL
- MIC (A. baumannii; Acinetobacter baumannii, ATCC17978, read-out: Minimum inhibitory concentration): > 64 µg/mL
- MIC (P. aeruginosa; Pseudomonas aeruginosa, PA14, read-out: Minimum inhibitory concentration): > 64 µg/mL
- MIC (E. aerogenes ATCC 13048; Klebsiella aerogenes, ATCC13048, read-out: Minimum inhibitory concentration): > 64 µg/mL
- reduction of MRSA CFUs in the deep-seated mouse thigh infection model [2]: unable to significantly reduce
- MIC (K. pneumonia WGLW2; Klebsiella pneumoniae, WGLW2, read-out: Minimum inhibitory concentration): > 64 µg/mL
- MIC (E. faecium; read-out: Minimum inhibitory concentration, E. faecium C68): 64 µg/mL (≈ 44.2 µM)
- MIC (E. faecium; read-out: Minimum inhibitory concentration, E. faecium D14): 2 µg/mL (≈ 1.38 µM)
- MIC (E. faecium; read-out: Minimum inhibitory concentration, E. faecium D24): 1 µg/mL (≈ 0.69 µM)
- MIC (E. faecium; read-out: Minimum inhibitory concentration, E. faecium D25): 1 µg/mL (≈ 0.69 µM)
- MIC (E. faecium; read-out: Minimum inhibitory concentration, E. faecium D29): 2 µg/mL (≈ 1.38 µM)
- MIC (E. faecium; read-out: Minimum inhibitory concentration, E. faecium E007): 1 µg/mL (≈ 0.69 µM)
- MIC (E. faecium; read-out: Minimum inhibitory concentration, E. faecium WB213): 16 µg/mL (≈ 11 µM)
- MIC (E. faecium; read-out: Minimum inhibitory concentration, E. faecium WC176): 64 µg/mL (≈ 44.2 µM)
